For the experiment, the target named is T1, PDE4B (human recombinant) (Homo sapiens, UniProt Q07343).
T1 construct: made in house
As to the kind of experiment: Inhibition of PDE4B activity: SPA and/or Fluorescence Polarisation (FP) assay. In kind it is biochemical. The conditions noted are these: one reading (n=1) or average of 2 or more readings, read-out: PDE4B pIC50 (±about 0.5) (converted). The procedure:
The ability of compounds to inhibit catalytic activity at PDE4B or 4D (human recombinant), PDE3 (from bovine aorta), PDE5 (human recombinant) or PDE6 (from bovine retina) can optionally be determined by Scintillation Proximity Assay (SPA) in a 96-well format.
The enzyme concentration is adjusted so that no more than 20% hydrolysis of the substrate defined below occurs in control wells without compound, during the incubation. For the PDE3, PDE4B and PDE4D assays, [5′,8-3H]Adenosine 3′,5′-cyclic phosphate (Amersham Pharmacia Biotech, code TRK.559; or Amersham Biosciences UK Ltd, Pollards Wood, Chalfont St Giles, Buckinghamshire HP8 4SP, UK) is added to give 0.05 uCi per well and about 10 nM final concentration. […] Plates containing assay mixture, suitably approx. 100 ul volume of assay mixture, are mixed on an orbital shaker for 5 minutes and incubated at ambient temperature for 1 hour. Phosphodiesterase SPA beads (Amersham Pharmacia Biotech, code RPNQ 0150) are added (about 1 mg per well) to terminate the assay. Plates are sealed and shaken and allowed to stand at ambient temperature for 35 minutes to 1 hour (suitably 35 minutes) to allow the beads to settle. […] Curves are analysed using ActivityBase and XLfit (ID Business Solutions Limited, 2 Ocean Court, Surrey Research Park, Guildford, Surrey GU2 7QB, United Kingdom). Results are expressed as pIC50 values.
The ability of compounds to inhibit catalytic activity at PDE4B (human recombinant) or PDE4D (human recombinant) can optionally be determined by IMAP Fluorescence Polarisation (FP) assay (IMAP Explorer kit, available from Molecular Devices Corporation, Sunnydale, Calif., USA; Molecular Devices code: R8062) in 384-well format.
The IMAP FP assay is able to measure PDE activity in an homogenous, non-radioactive assay format. The FP assay uses the ability of immobilised trivalent metal cations, coated onto nanoparticles (tiny beads), to bind the phosphate group of Fl-AMP that is produced on the hydrolysis of fluorescein-labelled (Fl) cyclic adenosine mono-phosphate (Fl-cAMP) to the non-cyclic Fl-AMP form. […] Binding of Fl-AMP product to the beads (coated with the immobilised trivalent cations) slows the rotation of the bound Fl-AMP and leads to an increase in the fluorescence polarisation ratio of parallel to perpendicular light. Inhibition of the PDE reduces/inhibits this signal increase.
The enzyme level is set by experimentation so that reaction is linear throughout the incubation. Fluorescein adenosine 3′,5′-cyclic phosphate (from Molecular Devices Corporation, Molecular Devices code: R7091) is added to give about 40 nM final concentration (final assay volume usually ca. 20-40 ul, suitably ca. 20 ul). Plates are mixed on an orbital shaker for 10 seconds and incubated at ambient temperature for 40 minutes. IMAP binding reagent (as described above, from Molecular Devices Corporation, Molecular Devices code: R7207) is added (60 ul of a 1 in 400 dilution in binding buffer of the kit stock solution) to terminate the assay. Plates are allowed to stand at ambient temperature for 1 hour. The Fluorescence Polarisation (FP) ratio of parallel to perpendicular light is measured using an Analyst™ plate reader (from Molecular Devices Corporation). […] Curves are analysed using ActivityBase and XLfit (ID Business Solutions Limited, 2 Ocean Court, Surrey Research Park, Guildford, Surrey GU2 7QB, United Kingdom). Results are expressed as plC50 values.
(In fluorescence polarisation assays a small probe gives low polarisation when free and higher when bound to something large.)

T1 sequence (Q07343 1-564 isoform Q07343-2): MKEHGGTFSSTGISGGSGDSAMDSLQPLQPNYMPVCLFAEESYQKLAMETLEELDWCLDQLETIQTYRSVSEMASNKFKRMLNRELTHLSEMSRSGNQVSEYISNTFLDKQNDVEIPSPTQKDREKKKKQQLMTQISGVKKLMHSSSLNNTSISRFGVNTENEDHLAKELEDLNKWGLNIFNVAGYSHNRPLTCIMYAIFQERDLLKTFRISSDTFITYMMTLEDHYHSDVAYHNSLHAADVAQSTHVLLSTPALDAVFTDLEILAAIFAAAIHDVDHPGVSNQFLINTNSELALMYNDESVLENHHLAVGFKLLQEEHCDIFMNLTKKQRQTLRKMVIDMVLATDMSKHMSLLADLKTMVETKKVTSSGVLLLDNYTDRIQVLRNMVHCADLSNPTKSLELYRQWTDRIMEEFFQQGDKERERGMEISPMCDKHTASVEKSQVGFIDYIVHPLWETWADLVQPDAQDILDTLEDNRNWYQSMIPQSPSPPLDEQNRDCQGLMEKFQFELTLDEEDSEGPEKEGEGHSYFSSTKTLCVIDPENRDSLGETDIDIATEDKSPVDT

As to `CCn1ncc2c(NC3CCOCC3)c(CN3Cc4ccc(C(F)(F)F)cc4C3=O)c(C)nc21` [Example 316, 2-{[1-ethyl-6-methyl-4-(tetrahydro-2H-pyran-4-ylamino)-1H-pyrazolo[3,4-b]pyridin-5-yl]methyl}-6-(trifluoromethyl)-2,3-dihydro-1H-isoindol-1-one], the IC50 is 10 to 100 pM.

`CCc1nc2c(cnn2CC)c(NC2CCOCC2)c1CNC(=O)c1ccc(N2CCCCC2)cc1` [Example 175, N-{[1,6-diethyl-4-(tetrahydro-2H-pyran-4-ylamino)-1H-pyrazolo[3,4-b]pyridin-5-yl]methyl}-4-(1-piperidinyl)benzamide]: the IC50 is 10 to 100 pM.

In the case of `CCn1ncc2c(NC3CCOCC3)c(CNC(=O)c3ccc(N4CCCCC4)cc3)c(C)nc21` [Example 116, N-{[1-ethyl-6-methyl-4-(tetrahydro-2H-pyran-4-ylamino)-1H-pyrazolo[3,4-b]pyridin-5-yl]methyl}-4-(1-piperidinyl)benzamide], the IC50 was 10 to 100 pM.

As for `CCc1nc2c(cnn2CC)c(NC2CCOCC2)c1CNC(=O)Nc1ccccc1` [Example 203, N-{[1,6-diethyl-4-(tetrahydro-2H-pyran-4-ylamino)-1H-pyrazolo[3,4-b]pyridin-5-yl]methyl}-N′-phenylurea], the IC50 was 126 to 1000 pM.

For the compound `CCn1ncc2c(NC3CCOCC3)c(CNC(=O)c3cnc(C)cn3)c(C)nc21` [Example 228, N-{[1-ethyl-6-methyl-4-(tetrahydro-2H-pyran-4-ylamino)-1H-pyrazolo[3,4-b]pyridin-5-yl]methyl}-5-methyl-2-pyrazinecarboxamide], the IC50 is 126 to 1000 pM.

For the compound `CCn1ncc2c(NC3CCOCC3)c(CNC(=O)c3ccc(NC(C)=O)cc3O)c(C)nc21` [Example 276, 4-(acetylamino)-N-{[1-ethyl-6-methyl-4-(tetrahydro-2H-pyran-4-ylamino)-1H-pyrazolo[3,4-b]pyridin-5-yl]methyl}-2-hydroxybenzamide], the IC50 was 10 to 100 pM.

On to `CCn1ncc2c(NC3CCOCC3)c(CNC(=O)c3ccc(C)nc3)c(C)nc21` [Example 337, N-{[1-ethyl-6-methyl-4-(tetrahydro-2H-pyran-4-ylamino)-1H-pyrazolo[3,4-b]pyridin-5-yl]methyl}-6-methyl-3-pyridinecarboxamide], for which the IC50 is 126 to 1000 pM.

Take `CCc1nc2c(cnn2CC)c(NC2CCN(C(N)=O)CC2)c1CNC(=O)c1ccc(NC(C)=O)cc1O` [Example 241, 4-({5-[({[4-(acetylamino)-2-hydroxyphenyl]carbonyl}amino)methyl]-1,6-diethyl-1H-pyrazolo[3,4-b]pyridin-4-yl}amino)-1-piperidinecarboxamide]: the IC50 was 10 to 100 pM.

`CCc1nc2c(cnn2CC)c(NC2CCOCC2)c1CNC(=O)c1ccc2c(c1)CCCC2` [Example 177, N-{[1,6-diethyl-4-(tetrahydro-2H-pyran-4-ylamino)-1H-pyrazolo[3,4-b]pyridin-5-yl]methyl}-5,6,7,8-tetrahydro-2-naphthalenecarboxamide]: the IC50 was 126 to 1000 pM.

For `CCn1ncc2c(NC3CCOCC3)c(CNC(=O)c3cccc4c3OCC4)c(C)nc21` [Example 220, N-{[1-ethyl-6-methyl-4-(tetrahydro-2H-pyran-4-ylamino)-1H-pyrazolo[3,4-b]pyridin-5-yl]methyl}-2,3-dihydro-1-benzofuran-7-carboxamide], the IC50 is 10 to 100 pM.

Regarding `CCn1ncc2c(NC3CCOCC3)c(CNC(=O)c3cnc(C)cn3)c(C(F)(F)F)nc21` [Example 348, N-{[1-Ethyl-4-(tetrahydro-2H-pyran-4-ylamino)-6-(trifluoromethyl)-1H-pyrazolo[3,4-b]pyridin-5-yl]methyl}-5-methyl-2-pyrazinecarboxamide], the IC50 was 126 to 1000 pM.

As to `CCn1ncc2c(NC3CCN(C(N)=O)CC3)c(CNC(=O)c3cccc(N4CCCC4=O)c3)c(C)nc21` [Example 267, 4-({1-ethyl-6-methyl-5-[({[3-(2-oxo-1-pyrrolidinyl)phenyl]carbonyl}amino)methyl]-1H-pyrazolo[3,4-b]pyridin-4-yl}amino)-1-piperidinecarboxamide], the IC50 is 10 to 100 pM.

Turning to `CCc1nc2c(cnn2CC)c(NC2CCOCC2)c1CNC(=O)c1cccc2c1CCC2` [Example 189, N-{[1,6-diethyl-4-(tetrahydro-2H-pyran-4-ylamino)-1H-pyrazolo[3,4-b]pyridin-5-yl]methyl}-2,3-dihydro-1H-indene-4-carboxamide], the IC50 is 126 to 1000 pM.

Turning to `CCc1nc2c(cnn2CC)c(NC2CCOCC2)c1CNC(=O)c1cncnc1` [Example 151, N-{[1,6-diethyl-4-(tetrahydro-2H-pyran-4-ylamino)-1H-pyrazolo[3,4-b]pyridin-5-yl]methyl}-5-pyrimidinecarboxamide], the IC50 is 126 to 1000 pM.

As for `CCc1nc2c(cnn2CC)c(NC2CCOCC2)c1CNC(=O)c1cc(C#N)c(C(C)C)cc1OC` [Example 188, 5-cyano-N-{[1,6-diethyl-4-(tetrahydro-2H-pyran-4-ylamino)-1H-pyrazolo[3,4-b]pyridin-5-yl]methyl}-4-(1-methylethyl)-2-(methyloxy)benzamide], the IC50 was 10 to 100 pM.

Regarding `CCc1nc2c(cnn2CC)c(NC2CCOCC2)c1CNC(=O)c1ccc2c(c1)CCCS2(=O)=O` [Example 258, N-{[1,6-diethyl-4-(tetrahydro-2H-pyran-4-ylamino)-1H-pyrazolo[3,4-b]pyridin-5-yl]methyl}-3,4-dihydro-2H-1-benzothiopyran-6-carboxamide 1,1-dioxide], the IC50 was 10 to 100 pM.

In the case of `CCc1nc2c(cnn2CC)c(NC2CCOCC2)c1CNC(=O)C1CCCO1` (centres unmarked) [Example 156, N-{[1,6-diethyl-4-(tetrahydro-2H-pyran-4-ylamino)-1H-pyrazolo[3,4-b]pyridin-5-yl]methyl}tetrahydro-2-furancarboxamide], the IC50 was 126 to 1000 pM.

Regarding `CCc1nc2c(cnn2CC)c(NC2CCN(C(N)=O)CC2)c1CNC(=O)c1ccc(NC(C)=O)cc1` [Example 242, 4-({5-[({[4-(acetylamino)phenyl]carbonyl}amino)methyl]-1,6-diethyl-1H-pyrazolo[3,4-b]pyridin-4-yl}amino)-1-piperidinecarboxamide], the IC50 was 10 to 100 pM.

For `CCn1ncc2c(NC3CCOCC3)c(CNC(=O)c3ccc(NC(C)=O)cc3)c(C)nc21` [Example 93, 4-(acetylamino)-N-{[1-ethyl-6-methyl-4-(tetrahydro-2H-pyran-4-ylamino)-1H-pyrazolo[3,4-b]pyridin-5-yl]methyl}benzamide], the IC50 is 126 to 1000 pM.

Consider `CCn1ncc2c(NC3CCOCC3)c(CNC(=O)c3ccc(F)cc3)c(C)nc21` [Example 313, N-{[1-ethyl-6-methyl-4-(tetrahydro-2H-pyran-4-ylamino)-1H-pyrazolo[3,4-b]pyridin-5-yl]methyl}-4-fluorobenzamide], for which the IC50 was 126 to 1000 pM.

On to `CCn1ncc2c(NC3CCOCC3)c(CNC(=O)c3ccc4c(c3)CCCS4(=O)=O)c(C)nc21` [Example 287, N-{[1-ethyl-6-methyl-4-(tetrahydro-2H-pyran-4-ylamino)-1H-pyrazolo[3,4-b]pyridin-5-yl]methyl}-3,4-dihydro-2H-1-benzothiopyran-6-carboxamide 1,1-dioxide], for which the IC50 is 126 to 1000 pM.

For the compound `CCc1nc2c(cnn2CC)c(NC2CCOCC2)c1CNC(=O)c1ccc(C(F)(F)F)nc1` [Example 326, N-{[1,6-diethyl-4-(tetrahydro-2H-pyran-4-ylamino)-1H-pyrazolo[3,4-b]pyridin-5-yl]methyl}-6-(trifluoromethyl)-3-pyridinecarboxamide], the IC50 was 126 to 1000 pM.

`CCn1ncc2c(NC3CCOCC3)c(CNC(=O)c3cccc(NC(C)=O)c3)c(C)nc21` [Example 280, 3-(acetylamino)-N-{[1-ethyl-6-methyl-4-(tetrahydro-2H-pyran-4-ylamino)-1H-pyrazolo[3,4-b]pyridin-5-yl]methyl}benzamide]: the IC50 was 10 to 100 pM.

These data come from patent publication US20090131431A1, “Pyrazolo[3,4-b]pyridine compounds, and their use as a PDE4 inhibitors” (priority 2005, published 2009).
